Patent US11918000B2, “Methods for inducing resistance to virus in a plant, priming a plant to resist viruses, decreasing virus accumulation, or increasing PR1 expression in a plant” (Academia Sinica, priority 2019, dated 2024)

Legend:
[1] = tested on: Tobacco mosaic virus (TMV); assay: Symptoms / disease index induced by TMV in Nicotiana benthamiana; format: in vivo; details: N. benthamiana; systemic protection test; 7 dpi
Protocol: FIG. 15A and FIG. 15B show disease index of N. benthamiana inoculated with TMV and Brassica juncea inoculated with TuMV. (FIG. 15A) N. benthamiana were inoculated with TMV. The disease index was classified into 4 levels according to the degree of yellowing, stunting and wilting at 7 dpi. (FIG. 15B) Brassica juncea were inoculated with TuMV. The disease index was classified into 3 levels according to the degree of leaf mosaic and stunting at 13 dpi.
Plants were grown in a growth chamber with 10,000 lux fluorescent light and a 16-h light/8-h dark cycle. N. glutinosa (6-7 weeks old, 8-10 leaf stage), N. benthamiana (3-4 weeks old, 5-6 leaf stage) and Brassica juncea (14 days old, 2-3 true-leaf stage) were used for treatment and/or inoculation. […] Virus inoculum was prepared with 100 ml of 0.1 M potassium phosphate (KP) buffer (61.5% of 0.1 M K2HPO4 and 38.5% 0.1 M KH2PO4, pH 7.0) mixed with 0.1 g of lyophilized leaves of plants infected with Tobacco mosaic virus (TMV) (FIGS. 1, 4A-E, 8 and 9; FIG. 10, 11, 12, 14 and 15; Table 1), or TMV tagged with green fluorescence protein (TMV-GFP) (FIG. 5) (Rabindran, S., and Dawson, W.O. 2001. Assessment of recombinants that arise from the use of a TMV-based transient expression vector. Virology 284:182-189). […] The severity of TMV or TuMV symptom of infected plants were scored based on external phenotype (FIG. 15). […]

[2] = tested on: TMV tagged with green fluorescence protein (TMV-GFP); assay: TMV-GFP infection of Nicotiana benthamiana (fluorescent infection foci); format: in vivo; details: N. benthamiana
Protocol: (§1) Plants were grown in a growth chamber with 10,000 lux fluorescent light and a 16-h light/8-h dark cycle. N. glutinosa (6-7 weeks old, 8-10 leaf stage), N. benthamiana (3-4 weeks old, 5-6 leaf stage) and Brassica juncea (14 days old, 2-3 true-leaf stage) were used for treatment and/or inoculation. For virus inoculation, plants were dusted with 600-grit silicon carbide powder (Sigma-Aldrich, St. Louis, Mo., USA) and mechanically inoculated. Virus inoculum was prepared with 100 ml of 0.1 M potassium phosphate (KP) buffer (61.5% of 0.1 M K2HPO4 and 38.5% 0.1 M KH2PO4, pH 7.0) mixed with 0.1 g of lyophilized leaves of plants infected with Tobacco mosaic virus (TMV) (FIGS. 1, 4A-E, 8 and 9; FIG. 10, 11, 12, 14 and 15; Table 1), or TMV tagged with green fluorescence protein (TMV-GFP) (FIG. 5) (Rabindran, S., and Dawson, W.O. 2001. Assessment of recombinants that arise from the use of a TMV-based transient expression vector. Virology 284:182-189). Different concentrations of TMV purified particle inoculum was diluted with 0.1 M potassium phosphate (KP) buffer (61.5% of 0.1 M K2HPO4 and 38.5% 0.1 M KH2PO4, pH 7.0) (FIGS. 2, 3, and 4F; Table 2). Turnip mosaic virus (TuMV) inoculum was prepared with 0.1 g of fresh leaves from plants infected with TuMV ground with 10 ml of 0.1 M sodium phosphate buffer (0.1 M NaH2PO4, 0.1 M Na2HPO4 and 0.5% Na2SO3, pH 7.4). The severity of TMV or TuMV symptom of infected plants were scored based on external phenotype (FIG. 15). Transmission electron microscope (Philips Electronic Instruments, Mahwah, N.J.) was used to examine TMV particles of different inoculums.
(§2) Whole plants were sprayed with 0.4 ml H2O, VB, culture filtrate derived from microorganism or 5 mM salicylic acid (SA, Sigma-Aldrich) for total of three times with a 24-h interval between each spray. Twenty-four hours after the final treatment, plants were rubbed with the virus inoculum.
Photographs of TMV-GFP fluorescent infection foci in N. benthamiana leaves were taken under UV light at 5 and 7 days post-inoculation (dpi), and the level of fluorescence as well as the areas of fluorescent infection sites in each leaf were measured by using ImageJ v1.47. All imaging was conducted under identical illumination and exposure conditions to allow for comparisons. Mean values of areas of all infection foci per treatment were calculated.
To analyze which virus infection steps are affected in F8-culture filtrate-treated plants, we used TMV tagged with green fluorescence protein (GFP) to inoculate N. benthamiana and monitor the infection of TMV. […] To compare TMV-GFP accumulation in each foci, we used a puncher to collect GFP foci under UV light and used qRT-PCR to quantify the TMV-GFP expression. […]

[3] = tested on: Tobacco mosaic virus (TMV) particle; assay: Infection rate of purified TMV particle on Nicotiana benthamiana; format: in vivo; details: Table 2, N. benthamiana, 7 dpi, RT-PCR, SA 5 mM
Protocol: as §1
Leaves of TMV-infected N. benthamiana were harvested approximately 5 days after inoculation. The initial purification of TMV virus particles followed the protocol as described by Gooding and Hebert (1967) with modifications. Briefly, polyethylene glycol with molecular weight 8000 (PEG 8000) (Sigma-Aldrich) was used instead of PEG 6000. In addition, the semi-purified preparation was submitted to linear density sucrose gradient (0-18%), and ultracentrifuged at 228,000×g for 1.5 h. The light scattering region was collected and diluted with 100 ml of suspension buffer (35 mM Na2HPO4, 15 mM NaH2PO4 and 0.05% 2-mercaptoethanol, pH7.2). NaCl (0.4 g) and PEG 8000 (4 g) were added and stirred for at least 1 h on ice, then centrifuged at 9000×g for 15 min at 4° C. The pellets were re-suspended in 1 ml of suspension buffer. The concentration of the purified TMV suspension was determined (A260 nm=[…] for 1 mg/mL of TMV) with a Nanodrop (ND-1000, Thermo Fisher Scientific, MA, USA).
as §2
In addition to using inoculum made from lyophilized leaves of TMV infected N. benthamiana, we also used different concentrations (1 μg/ml, 10 μg/ml and 50 μg/ml) of purified TMV particles as inoculum to inoculate N. glutinosa and N. benthamiana pretreated with H2O, SA, VB, or F8-culture filtrate (FIG. 2, FIG. 3). […] The infection rate of TMV on N. benthamiana was also detected by use of qRT-PCR (Table 2).

[4] = tested on: Tobacco mosaic virus (TMV); assay: Infection rate of TMV on Nicotiana benthamiana, inoculum from lyophilized infected leaves, RT-PCR detection; format: in vivo; details: N. benthamiana
Protocol: as §1, §2
Besides using N. glutinosa for our initial screening, we also used N. benthamiana, a host that is highly susceptible to TMV, for resistance assay. N. benthamiana was pretreated with H2O, SA, VB, F2- or F8-culture filtrate as for pretreatment of N. glutinosa. All treated plants were inoculated with TMV inoculum made from lyophilized leaves of TMV infected N. benthamiana. […] With RT-PCR to detect TMV on all treated plants, the infection rate was much reduced with F8-culture filtrate than H2O, SA, VB or F2-culture filtrate pretreatment (Table 1). In our repeat experiments, the infection rate of TMV-inoculated plants with F8-culture filtrate pretreatment even decreased to 0% (Table 1). […] We prepared at least 7 different batches of F8-culture filtrate, and the ability to induce resistance against TMV was consistent between different batches (Table 1).

PR-1 = assay: Relative expression of PR-1 by qRT-PCR; format: in vivo, Nicotiana benthamiana; details: N. benthamiana, no TMV, 24 hpt
Excerpt: Total RNA was isolated by use of Trizol (Invitrogen, Bethesda, Md.) according to the manufacturer's instruction. Residual DNA was removed by using the TURBO DNA-free kit (Ambion, Austin Tex., USA). cDNA was synthesized by using the PrimeScript RT-PCR Kit (Takara Bio, Shiga, Japan). Quantitative RT-PCR (qRT-PCR) involved the SYBR protocol (Life Technologies) and the ABI 7100 real-time PCR system (Applied Biosystems, Carlsbad, Calif.). For quantitative analysis, actin was used as an input control. Relative fold change in mRNA expression was determined by calculating 2^−ΔΔCt. The sequences of primers used are in Table S1.
We collected both the local and upper un-treated (systemic) leaves at 24 h post-treatment (hpt) to analyze the expression of the PR-1 gene (a SAR marker gene) (Zheng et al., 2015). PR-1 gene expression was detected in SA- and VB- but not F8-culture filtrate-treated local leaves (FIG. 4C). […] In addition, we collected leaves from plants with whole plants pretreated with H2O, SA, VB or F8-culture filtrate. Consistently, PR-1 gene induction was detected in leaves of whole plants pretreated with SA and VB but not whole plants pretreated with F8-culture filtrate at 24 hpt (FIG. 4E).
To analyze how F8-polysaccharide induces plant viral resistance, we measured the expression of SA-, JA- and ET-responsive immune marker genes in H2O- and F8-polysaccharide-treated plants (Cortes-Barco et al., 2010; Milling et al., 2011; Zhu et al., 2014). We first confirmed the induction of marker genes induced by SA (PR-1 and PR-2), JA (PDF-1.2 and PR-4), and ET (Osm and EREBP) in N. benthamiana (FIG. 14A). Plants were pretreated with H2O and F8-polysacccharide for total of three times with a 24-h interval between each spray as described previously, then leaves were collected from one set of individual plants at 0, 12, 24, 36, 48, 72, and 96 hpt. […] We detected the accumulation of TMV and the expression of SA-, JA- and ET-responsive immune marker genes (FIG. 9A-D, FIGS. S5C and D). […]

[5] = Table 1, lyophilized leaf inoculum, 7 dpi, RT-PCR, SA 5 mM
[6] = Table S3, fractions derived from F8-culture filtrate, 7 dpi, RT-PCR

Compound: O=C(O)c1ccccc1O [SA, salicylic acid]
- viral symptoms with pretreatment of only local (lower) leaves and TMV inoculation of upper untreated leaves [1]: severe viral symptoms
- number of initial TMV-GFP infection foci ([2]; 5 dpi): reduced
- mean TMV accumulation per foci ([2]; qRT-PCR of punched GFP foci): similar
- infection rate of TMV-GFP: number of plants exhibiting green fluorescence under UV illumination to total TMV-GFP inoculated plants, Exp. 1 ([2]; Table S2, 7 dpi, SA 5 mM): 5/5
- infection rate of TMV-GFP: number of plants exhibiting green fluorescence under UV illumination to total TMV-GFP inoculated plants, Exp. 2 ([2]; Table S2, 7 dpi, SA 5 mM): 4/6
- infection rate of TMV particle: number of plants detected with TMV to total inoculated plants, Exp. 1, 1 μg/ml ([3]; TMV particle 1 μg/ml): 6/6
- infection rate of TMV particle: number of plants detected with TMV to total inoculated plants, Exp. 2, 1 μg/ml ([3]; TMV particle 1 μg/ml): 6/6
- infection rate of TMV particle: number of plants detected with TMV to total inoculated plants, Exp. 3, 1 μg/ml ([3]; TMV particle 1 μg/ml): 15/15
- infection rate of TMV particle: number of plants detected with TMV to total inoculated plants, Exp. 1, 10 μg/ml ([3]; TMV particle 10 μg/ml): 6/6
- infection rate of TMV particle: number of plants detected with TMV to total inoculated plants, Exp. 1, 50 μg/ml ([3]; TMV particle 50 μg/ml): 6/6
- infection rate of TMV-inoculated plants ([4]; pretreatment before TMV inoculation): 100%
- infection rate of TMV: number of plants detected with TMV to total TMV inoculated plants, Exp. 2 [4, 5]: 5/5
- infection rate of TMV: number of plants detected with TMV to total TMV inoculated plants, Exp. 3 [4, 5]: 4/5
- infection rate of TMV: number of plants detected with TMV to total TMV inoculated plants, Exp. 4 [4, 5]: 5/5
- infection rate of TMV: number of plants detected with TMV to total TMV inoculated plants, Exp. 5 [4, 5]: 5/5
- infection rate of TMV: number of plants detected with TMV to total TMV inoculated plants, Exp. 6 [4, 5]: 5/5
- infection rate of TMV: number of plants detected with TMV to total TMV inoculated plants, Exp. 7 [4, 5]: 5/5
- infection rate of TMV: number of plants detected with TMV to total TMV inoculated plants, Exp. 8 [4, 5]: 5/5
- infection rate of TMV: number of plants detected with TMV to total TMV inoculated plants, Exp. 1 ([4]; Table 1, three sprays at 24-h intervals, inoculum from lyophilized TMV-inoculated leaves, 7 dpi, RT-PCR, SA 5 mM): 5/5
- infection rate of TMV: number of plants detected with TMV to total TMV inoculated plants, Total ([4]; Table 1, sum of Exp. 1-8, 7 dpi, RT-PCR): 39/40
- infection rate of TMV: number of plants detected with TMV to total TMV inoculated plants, Exp. 1 [4, 6]: 5/5
- infection rate of TMV: number of plants detected with TMV to total TMV inoculated plants, Exp. 2 [4, 6]: 5/5
- infection rate of TMV: number of plants detected with TMV to total TMV inoculated plants, Exp. 3 [4, 6]: 5/5
- infection rate of TMV: number of plants detected with TMV to total TMV inoculated plants, Total ([4]; Table S3, sum of Exp. 1-3, 7 dpi, RT-PCR): 15/15
- PR-1 gene expression in treated local leaves (PR-1; local leaves pretreated): detected
- PR-1 gene expression on systemic (upper untreated) leaves (PR-1; local leaves pretreated): increased PR-1 gene expression
- PR-1 gene induction in leaves of whole plants pretreated (PR-1; whole plant pretreated): detected
